Assay results: paper PMC10059848, “Inhibition Kinetics and Theoretical Studies on Zanthoxylum chalybeum Engl. Dual Inhibitors of α-Glucosidase and α-Amylase” (Journal of Xenobiotics, 2023)

Legend:
[1] = target: T1, porcine pancreas α-amylase (Sus scrofa, UniProt P00690); assay: Inhibition kinetics of α-amylase (Lineweaver–Burk and Dixon plots); conditions: for Inhibition Mode, α-Amylase: Lineweaver–Burk plots
T1 sequence (P00690 16-511): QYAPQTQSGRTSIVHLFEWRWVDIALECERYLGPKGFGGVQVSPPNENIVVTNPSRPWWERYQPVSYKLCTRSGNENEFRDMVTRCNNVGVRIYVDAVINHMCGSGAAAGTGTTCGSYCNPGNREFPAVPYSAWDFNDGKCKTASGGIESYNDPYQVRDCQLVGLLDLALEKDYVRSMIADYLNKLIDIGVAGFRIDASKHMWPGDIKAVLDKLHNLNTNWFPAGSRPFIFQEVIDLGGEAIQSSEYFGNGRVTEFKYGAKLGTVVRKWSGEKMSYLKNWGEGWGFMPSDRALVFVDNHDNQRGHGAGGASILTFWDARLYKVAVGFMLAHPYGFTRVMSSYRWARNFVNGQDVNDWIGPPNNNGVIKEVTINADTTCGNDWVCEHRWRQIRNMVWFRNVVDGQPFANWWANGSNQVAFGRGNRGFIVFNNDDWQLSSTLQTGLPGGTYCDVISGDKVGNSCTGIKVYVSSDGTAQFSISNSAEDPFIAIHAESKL
Source text: Using Lineweaver–Burk plots, the mode of inhibition was established, followed by secondary plots (Dixon plots) depending on the established mode of inhibition. The following equation was used to obtain the inhibition constants (Ki) [15]: v=Vmax ×S/Km(1+[I]/Ki)+S(1+[I]/αKi) where S and I are the concentrations of the substrate and inhibitor, respectively; Vmax is the maximum velocity; Km is the Michaelis–Menten constant; Ki is the competitive inhibition constant; and αKi is the uncompetitive inhibition constant.
Lineweaver–Burk plots on monoreplicate tests were performed followed by Dixon secondary plots to determine the inhibition constants. The means of the observed triplicate inhibition constants were subjected to analysis of variance with Tukey HSD/Tukey Kramer post-analysis to compare means. The least significant difference was considered at p < 0.05 and the coefficient of determination (R^2) was obtained as the average of the regression curves from Dixon plots of individual experiments.

yeast α-glucosidase = yeast α-glucosidase (Saccharomyces cerevisiae, UniProt P53341); assay: Inhibition kinetics of α-glucosidase (Lineweaver–Burk and Dixon plots); assay type: biochemical; conditions: for Inhibition Mode, α-Glucosidase: Lineweaver–Burk plots
α-glycosidase = target: α-glycosidase; design: method as in PMID 32889048; conditions: read-out: IC50 against α-glycosidase; cited from earlier work
[2] = Lineweaver-Burk plot, competitive inhibition

yeast α-glucosidase, sequence (P53341 whole entry): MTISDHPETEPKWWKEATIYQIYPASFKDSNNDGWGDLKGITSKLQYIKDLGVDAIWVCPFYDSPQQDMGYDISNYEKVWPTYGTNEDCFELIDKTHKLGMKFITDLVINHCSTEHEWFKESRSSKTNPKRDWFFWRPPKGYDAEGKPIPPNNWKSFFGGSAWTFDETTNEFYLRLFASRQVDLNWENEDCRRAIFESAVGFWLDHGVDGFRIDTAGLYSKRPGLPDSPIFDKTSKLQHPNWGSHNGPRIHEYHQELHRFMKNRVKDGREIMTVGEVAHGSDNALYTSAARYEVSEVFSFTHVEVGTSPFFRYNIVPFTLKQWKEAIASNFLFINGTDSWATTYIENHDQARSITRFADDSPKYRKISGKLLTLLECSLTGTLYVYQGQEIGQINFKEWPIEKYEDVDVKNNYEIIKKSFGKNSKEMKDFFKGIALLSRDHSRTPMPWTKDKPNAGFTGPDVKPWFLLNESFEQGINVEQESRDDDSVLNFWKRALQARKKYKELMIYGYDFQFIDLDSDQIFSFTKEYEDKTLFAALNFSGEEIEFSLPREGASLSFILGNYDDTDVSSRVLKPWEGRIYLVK

In the case of 6-hydroxy-N-methyldecarine [Compound 8], the “Inhibition Mode, α-Amylase” value [1] is reported as “Mixed” and the “Inhibition Mode, α-Glucosidase” value (yeast α-glucosidase) is reported as “Mixed”.

For C[C@H]1O[C@H](O[C@H]2[C@H](O)[C@@H](O)[C@@H](O[C@H]3[C@H](O)[C@@H](O)C(O)O[C@@H]3CO)O[C@@H]2CO)[C@H](O)[C@@H](O)[C@@H]1N[C@H]1C=C(CO)[C@@H](O)[C@H](O)[C@H]1O (stereo partly shown) [Acarbose, acarbose, reference compound], the “Inhibition Mode, α-Amylase” value [1] is given as “Competitive”, the “Inhibition Mode, α-Glucosidase” value (yeast α-glucosidase) is given as “Competitive” and the IC50 (α-glycosidase) is given as 44.9 µM.

In the case of CC(C)CNC(=O)/C=C/C/C=C/c1ccc2c(c1)OCO2 [Compound 1, Chalybemide A], the “Inhibition Mode, α-Amylase” value [1] is reported as “Non-competitive” and the “Inhibition Mode, α-Glucosidase” value (yeast α-glucosidase) is reported as “Non-competitive”.

For CC(C)(O)CNC(=O)/C=C/c1ccccc1 [Compound 2, chalybemide B], the “Inhibition Mode, α-Amylase” value [1] was “Non-competitive” and the “Inhibition Mode, α-Glucosidase” value (yeast α-glucosidase) was “Uncompetitive”.

In the case of COc1ccc(CN(C)C(=O)c2ccccc2OC)cc1 [Compound 3, chalybemide C], the “Inhibition Mode, α-Amylase” value [1] is reported as “Non-competitive” and the “Inhibition Mode, α-Glucosidase” value (yeast α-glucosidase) is reported as “Non-competitive”.

With CC(C)CNC(=O)/C=C/c1ccc2c(c1)OCO2 [Compound 4, fagaramide] the “Inhibition Mode, α-Amylase” value [1] was “Non-competitive” and the “Inhibition Mode, α-Glucosidase” value (yeast α-glucosidase) was “Non-competitive”.

With COc1ccc2c(OC)c3ccoc3nc2c1OC [Compound 5, skimmianine] the “Inhibition Mode, α-Amylase” value [1] was “Mixed” and the “Inhibition Mode, α-Glucosidase” value (yeast α-glucosidase) was “Mixed”.

In the case of COc1ccc2c(cnc3c4cc5c(cc4ccc23)OCO5)c1OC [Compound 6, norchelerythrine], the “Inhibition Mode, α-Amylase” value [1] is reported as “Mixed” and the “Inhibition Mode, α-Glucosidase” value (yeast α-glucosidase) is reported as “Mixed”.

With COc1cc(-c2cc3cc(/C=C/CO)cc(OC)c3o2)ccc1O [Compound 9, ailanthoidol] the “Inhibition Mode, α-Amylase” value [1] was “Uncompetitive” and the “Inhibition Mode, α-Glucosidase” value (yeast α-glucosidase) was “Uncompetitive”.

For OCC1OC1c1ccc2c(c1)OCO2 (stereo not shown) [Compound 10, 2,3-epoxy-6,7-methylenedioxyconiferol], the “1/Vmax, α-amylase” value [1, 2] was 24.47 s⁻¹, the “Inhibition Mode, α-Amylase” value [1] was “Competitive” and the “1/Vmax, α-glucosidase” value (yeast α-glucosidase; [2]) was 20.25 s⁻¹. The “Inhibition Mode, α-Glucosidase” value (yeast α-glucosidase) was “Competitive”.

With c1cc2c(cc1C1OCC3C(c4ccc5c(c4)OCO5)OCC13)OCO2 (stereo not shown) [Compound 11, sesamine] the “Inhibition Mode, α-Amylase” value [1] was “Non-competitive” and the “Inhibition Mode, α-Glucosidase” value (yeast α-glucosidase) was “non-competitive”.
